From the NIST ThermoML archive (doi:10.1021/je300152t) come the findings set out here.

± gives the expanded uncertainty stated by the source.

For data set [1] the following is noted: Crystal; DTA.
Data set [2] can be described thus: Molar enthalpy of transition or fusion. Conditions: Crystal; DSC.

Consider `CC(=O)Nc1ccc(C)cc1` [1-acetamido-4-methylbenzene], for which the Normal melting temperature in data set [1] was 148.2 ± 0.7 °C. For the same molecule, in data set [2], the “Molar enthalpy of transition or fusion” value was 7.03 ± 0.167 kcal/mol.
In the same order, the values of `O=C(Nc1ccccc1)c1ccccc1` [N-phenylbenzamide] are 162 ± 1 °C and 7.46 ± 0.359 kcal/mol.
As to `CCOc1cccc(NC(C)=O)c1` [N-(3-ethoxyphenyl)acetamide], the Normal melting temperature in data set [1] was 95 ± 0.9 °C. Moreover, in data set [2], the “Molar enthalpy of transition or fusion” value is 6.91 ± 0.239 kcal/mol.
In the same order, the values of `CC(=O)Nc1ccccc1` [N-phenylethanamide] are 113.8 ± 0.4 °C and 5.28 ± 0.12 kcal/mol.
With `CCOc1ccc(NC(C)=O)cc1` [N-(4-ethoxyphenyl)ethanamide], the Normal melting temperature in data set [1] is 134 ± 1 °C. Also, in data set [2], the “Molar enthalpy of transition or fusion” value came to 7.65 ± 0.167 kcal/mol.
The corresponding values for `COc1ccc(NC(C)=O)cc1` [N-(4-methoxyphenyl)ethanamide] are 125.1 ± 2.4 °C and 6.07 ± 0.191 kcal/mol.
